From patent publication US11535594B2, “Microbiocidal picolinamide derivatives” (Syngenta Participations AG, priority 2017, dated 2022)

Key:
[1] = tested on: Monographella nivalis (Microdochium nivale); assay: Monographella nivalis (Microdochium nivale) / liquid culture (foot rot cereals); format: cell-based; settings: PDB potato dextrose broth, 24° C., 4-5 days after application, compared to untreated checks, read-out: disease control (inhibition of growth, photometric)
Protocol: (§1) Monographella nivalis (Microdochium nivale)/Liquid Culture (Foot Rot Cereals) Conidia of the fungus from cryogenic storage are directly mixed into nutrient broth (PDB potato dextrose broth). After placing a (DMSO) solution of test compound into a microtiter plate (96-well format), the nutrient broth containing the fungal spores is added. The test plates are incubated at 24° C. and the inhibition of growth is determined photometrically 4-5 days after application.

[2] = tested on: Mycosphaerella Graminicola (Septoria tritici); assay: Mycosphaerella graminicola (Septoria tritici) / liquid culture (Septoria blotch); format: cell-based; settings: Zymoseptoria tritici, PDB potato dextrose broth, 24° C., 4 to 5 days after application, compared to untreated checks, read-out: disease control (inhibition of growth, photometric)
Protocol: as §1, with “Mycosphaerella Graminicola (Septoria tritici)/Liquid” for “Monographella nivalis (Microdochium nivale)/Liquid”, “(Septoria Blotch)” for “(Foot Rot Cereals)”, “4 to 5” for “4-5”

[3] = tested on: Mycosphaerella arachidis (Cercospora arachidicola); assay: Mycosphaerella arachidis (Cercospora arachidicola) / liquid culture (early leaf spot); format: cell-based; settings: PDB potato dextrose broth, 24° C., 4-5 days after application, compared to untreated checks, read-out: disease control (inhibition of growth, photometric)
Protocol: as §1, with “Mycosphaerella arachidis (Cercospora arachidicola)/Liquid” for “Monographella nivalis (Microdochium nivale)/Liquid”, “(Early Leaf Spot)” for “(Foot Rot Cereals)”

[4] = tested on: Puccinia Recondite f. Sp. Tritici; assay: Puccinia recondita f. sp. tritici / wheat / leaf disc preventative (brown rust); format: in vivo; settings: foliar, wheat leaf segments cv. Kanzler, inoculated 1 day after application, assessed 7-9 days after application, compared to untreated, read-out: disease control
Protocol: Puccinia Recondite f. Sp. Tritici/Wheat/Leaf Disc Preventative (Brown Rust) Wheat leaf segments cv. Kanzler are placed on agar in multiwell plates (24-well format) and sprayed with the formulated test compound diluted in water. The leaf disks are inoculated with a spore suspension of the fungus 1 day after application. The inoculated leaf segments are incubated at 19° C. and 75% rh under a light regime of 12 h light/12 h darkness in a climate cabinet and the activity of a compound is assessed as percent disease control compared to untreated when an appropriate level of disease damage appears in untreated check leaf segments (7-9 days after application).

[5] = tested on: Phaeosphaeria nodorum (Septoria nodorum); assay: Phaeosphaeria nodorum (Septoria nodorum) / wheat / leaf disc preventative (glume blotch); format: in vivo; settings: Parastagonospora nodorum, foliar, 120 h, wheat leaf segments cv. Kanzler, inoculated 2 days after application, assessed 5-7 days after application, compared to untreated, read-out: disease control
Protocol: Phaeosphaeria nodorum (Septoria nodorum)/Wheat/Leaf Disc Preventative (Glume Blotch) Wheat leaf segments cv. Kanzler are placed on agar in a multiwell plate (24-well format) and sprayed with the formulated test compound diluted in water. The leaf disks are inoculated with a spore suspension of the fungus 2 days after application. The inoculated test leaf disks are incubated at 20° C. and 75% rh under a light regime of 12 h light/12 h darkness in a climate cabinet and the activity of a compound is assessed as percent disease control compared to untreated when an appropriate level of disease damage appears in untreated check leaf disks (5-7 days after application).

[6] = tested on: Glomerella Lagenarium (Colletotrichum lagenarium); assay: Glomerella lagenarium (Colletotrichum lagenarium) / liquid culture (anthracnose); format: cell-based; settings: Colletotrichum orbiculare, PDB potato dextrose broth, 24° C., 3 to 4 days after application, compared to untreated checks, read-out: disease control (inhibition of growth, photometric)
Protocol: as §1, with “Glomerella Lagenarium (Colletotrichum lagenarium)/Liquid” for “Monographella nivalis (Microdochium nivale)/Liquid”, “(Anthracnose)” for “(Foot Rot Cereals)”, “measured” for “determined”, “3 to 4” for “4-5”

[7] = tested on: Magnaporthe grisea (Pyricularia oryzae); assay: whole plant or invertebrate; format: in vivo; settings: foliar, read-out: disease control

COc1ccnc(C(=O)N[C@@H](C)C(=O)ON(C)C(c2ccc(C(C)(C)C)cc2)c2ccc(C(C)(C)C)cc2)c1O [I.aa.01, [bis(4-tert-butylphenyl)methyl-methyl-amino] (2S)-2-[(3-hydroxy-4-methoxy-pyridine-2-carbonyl)amino]propanoate]
≥ 80%: inhibition at 200 ppm [1] | inhibition at 200 ppm [2]

COc1ccnc(C(=O)N[C@@H](C)C(=O)ON(C)C(c2ccccc2)C(C)C)c1O (stereo partly drawn) [I.d.01, [methyl-(2-methyl-1-phenyl-propyl)amino] (2S)-2-[(3-hydroxy-4-methoxy-pyridine-2-carbonyl)amino] propanoate]
≥ 80%: inhibition at 200 ppm [3] | inhibition at 200 ppm [2] | pest or weed control at 200 ppm [4]

COc1ccnc(C(=O)N[C@@H](C)C(=O)ON(C)C(c2ccccc2)C2CC2)c1O (stereo partly drawn) [I.e.01, [[cyclopropyl(phenyl)methyl]-methyl-amino] (2S)-2-[(3-hydroxy-4-methoxy-pyridine-2-carbonyl)amino] propanoate]
≥ 80%: inhibition at 200 ppm [2] | pest or weed control at 200 ppm [5]

COc1ccnc(C(=O)N[C@@H](C)C(=O)ON(C)C(c2ccc3ccccc3c2)C2CC2)c1O (stereo partly drawn) [I.g.01, [[cyclopropyl(2-naphthyl)methyl]-methyl-amino] (2S)-2-[(3-hydroxy-4-methoxy-pyridine-2-carbonyl)amino] propanoate]
≥ 80%: pest or weed control at 200 ppm [5]

COc1ccnc(C(=O)N[C@@H](C)C(=O)ON(C)C(c2ccccc2)C2CCCC2)c1O (stereo partly drawn) [I.h.01, [[cyclopentyl(phenyl)methyl]-methyl-amino] (2S)-2-[(3-hydroxy-4-methoxy-pyridine-2-carbonyl)amino] propanoate]
≥ 80%: inhibition at 200 ppm [6] | pest or weed control at 200 ppm [7] | inhibition at 200 ppm [3] | inhibition at 200 ppm [2] | pest or weed control at 200 ppm [5] | pest or weed control at 200 ppm [4]

COc1ccnc(C(=O)N[C@@H](C)C(=O)ON(C)C(c2ccccc2)C2CCCCC2)c1O (stereo partly drawn) [I.j.01, [[cyclohexyl(phenyl)methyl]-methyl-amino] (2S)-2-[(3-hydroxy-4-methoxy-pyridine-2-carbonyl)amino] propanoate]
≥ 80%: pest or weed control at 200 ppm [5]

COc1ccnc(C(=O)N[C@@H](C)C(=O)ON(C)C(C)(c2ccccc2)c2ccccc2)c1O [I.m.02, [1,1-diphenylethyl (methyl)amino] (2S)-2-[(3-hydroxy-4-methoxy-pyridine-2-carbonyl)amino] propanoate]
≥ 80%: pest or weed control at 200 ppm [7] | inhibition at 200 ppm [3] | inhibition at 200 ppm [2] | pest or weed control at 200 ppm [5] | pest or weed control at 200 ppm [4]

COc1ccnc(C(=O)N[C@@H](C)C(=O)ON(C)C(c2ccccc2)c2ccc(F)cc2)c1O (stereo partly drawn) [I.n.01, [[(4-fluorophenyl)-phenyl-methyl]-methyl-amino] (2S)-2-[(3-hydroxy-4-methoxy-pyridine-2-carbonyl)amino]propanoate]
≥ 80%: inhibition at 200 ppm [6] | pest or weed control at 200 ppm [7] | inhibition at 200 ppm [1] | inhibition at 200 ppm [3] | inhibition at 200 ppm [2] | pest or weed control at 200 ppm [5] | pest or weed control at 200 ppm [4]

COc1ccnc(C(=O)N[C@@H](C)C(=O)ON(C)C(c2ccccc2)c2ccc(Cl)cc2)c1O (stereo partly drawn) [I.o.01, [[(4-chlorophenyl)-phenyl-methyl]-methyl-amino] (2S)-2-[(3-hydroxy-4-methoxy-pyridine-2-carbonyl)amino]propanoate]
≥ 80%: inhibition at 200 ppm [6] | inhibition at 200 ppm [3] | inhibition at 200 ppm [2] | pest or weed control at 200 ppm [5] | pest or weed control at 200 ppm [4]

COc1ccnc(C(=O)N[C@@H](C)C(=O)ON(C)C(c2ccccc2)c2ccc3ccccc3c2)c1O (stereo partly drawn) [I.r.01, [methyl-[2-naphthyl(phenyl)methyl]amino] (2S)-2-[(3-hydroxy-4-methoxy-pyridine-2-carbonyl)amino] propanoate]
≥ 80%: pest or weed control at 200 ppm [5]

COc1ccnc(C(=O)N[C@@H](C)C(=O)ON(C)C(c2ccc(F)cc2)c2ccc(F)cc2)c1O [I.s.01, [bis(4-fluorophenyl)methyl-methyl-amino] (2S)-2-[(3-hydroxy-4-methoxy-pyridine-2-carbonyl)amino]propanoate]
≥ 80%: inhibition at 200 ppm [6] | pest or weed control at 200 ppm [7] | inhibition at 200 ppm [1] | inhibition at 200 ppm [3] | inhibition at 200 ppm [2] | pest or weed control at 200 ppm [5] | pest or weed control at 200 ppm [4]

COc1ccnc(C(=O)N[C@@H](C)C(=O)ON(C)C(c2ccc(F)cc2)c2ccc(F)cc2)c1OC(C)=O [I.s.13, [bis(4-fluorophenyl)methyl-methyl-amino] (2S)-2-[(3-acetoxy-4-methoxy-pyridine-2-carbonyl)amino]propanoate]
≥ 80%: inhibition at 200 ppm [3] | inhibition at 200 ppm [2] | pest or weed control at 200 ppm [5] | pest or weed control at 200 ppm [4]

COc1ccnc(C(=O)N[C@@H](C)C(=O)ON(C)C(C)(c2ccc(F)cc2)c2ccc(F)cc2)c1OC(C)=O [I.s.14, [1,1-bis(4-fluorophenyl)ethyl-methyl-amino] (2S)-2-[(3-acetoxy-4-methoxy-pyridine-2-carbonyl)amino] propanoate]
≥ 80%: pest or weed control at 200 ppm [7] | inhibition at 200 ppm [3] | inhibition at 200 ppm [2] | pest or weed control at 200 ppm [5]

COc1ccnc(C(=O)N[C@@H](C)C(=O)ON(C)C(C)(c2ccc(F)cc2)c2ccc(Cl)cc2)c1O (stereo partly drawn) [I.t.02, [[1-(4-chlorophenyl)-1-(4-fluorophenyl)ethyl]-methyl-amino] (2S)-2-[(3-hydroxy-4-methoxy-pyridine-2-carbonyl)amino]propanoate]
≥ 80%: inhibition at 200 ppm [6] | inhibition at 200 ppm [1] | inhibition at 200 ppm [3] | inhibition at 200 ppm [2] | pest or weed control at 200 ppm [4]

COc1ccnc(C(=O)N[C@@H](C)C(=O)ON(C)C(c2ccc(Cl)cc2)c2ccc(Cl)cc2)c1O [I.u.01, [bis(4-chlorophenyl)methyl-methyl-amino] (2S)-2-[(3-hydroxy-4-methoxy-pyridine-2-carbonyl)amino] propanoate]
≥ 80%: inhibition at 200 ppm [6] | pest or weed control at 200 ppm [7] | inhibition at 200 ppm [3] | inhibition at 200 ppm [2] | pest or weed control at 200 ppm [5] | pest or weed control at 200 ppm [4]

CCC(c1ccc(Cl)cc1)(c1ccc(Cl)cc1)N(C)OC(=O)[C@H](C)NC(=O)c1nccc(OC)c1O [I.u.03, [1,1-bis(4-chlorophenyl)propyl-methyl-amino] (2S)-2-[(3-hydroxy-4-methoxy-pyridine-2-carbonyl)amino]propanoate]
≥ 80%: inhibition at 200 ppm [1] | inhibition at 200 ppm [3] | inhibition at 200 ppm [2]

COc1ccnc(C(=O)N[C@@H](C)C(=O)ON(C)C(c2cc(C)cc(C)c2)c2cc(C)cc(C)c2)c1O [I.x.01, [bis(3,5-dimethylphenyl)methyl-methyl-amino] (2S)-2-[(3-hydroxy-4-methoxy-pyridine-2-carbonyl)amino]propanoate]
≥ 80%: inhibition at 200 ppm [6] | inhibition at 200 ppm [1] | inhibition at 200 ppm [2]
